Patent US20230066011A1, “PYRROLOPYRIMIDINE DERIVATIVE, AND PHARMACEUTICAL COMPOSITION FOR PREVENTING OR TREATING PROTEIN KINASE-RELATED DISEASE COMPRISING SAME AS ACTIVE INGREDIENT” (VORONOI CO., LTD., priority 2019, published 2023)

How the values were obtained:
Format in all cases: biochemical
human GST-CLK1 = target: T1, human GST-CLK1 (Homo sapiens, UniProt P49759); experiment: GST-CLK1 enzyme inhibition, ADP-Glo kinase assay; conditions: ATP 10 μM, GST-CLK1 129-end
T1 construct: purified human GST-CLK1 (129-end, SignalChem) enzyme; purchased SignalChem
T1 sequence (P49759 129-484 limits assumed): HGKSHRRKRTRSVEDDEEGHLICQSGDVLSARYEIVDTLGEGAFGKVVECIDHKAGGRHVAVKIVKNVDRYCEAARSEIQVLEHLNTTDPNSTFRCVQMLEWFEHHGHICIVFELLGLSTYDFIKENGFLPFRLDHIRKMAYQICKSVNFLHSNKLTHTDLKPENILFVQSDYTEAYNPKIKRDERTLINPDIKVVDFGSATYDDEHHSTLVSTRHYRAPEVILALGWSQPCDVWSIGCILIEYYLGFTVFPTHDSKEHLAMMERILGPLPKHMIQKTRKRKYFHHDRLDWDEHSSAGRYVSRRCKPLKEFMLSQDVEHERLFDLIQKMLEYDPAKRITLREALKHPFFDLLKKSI
Outline: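 Human GST-CLK1 (129-end, 3 ng) reacted with substrate and 10 μM ATP for 1 h at 25° C in 40 mM Tris-HCl pH 7.4, 20 mM MgCl2, 0.5 mg/mL BSA, 50 μM DTT. ADP-Glo luminescence was normalised to solvent control; IC50 (nM) from 3 data sets.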

LRRK2 (G2019S) = LRRK2 (G2019S) (Homo sapiens, UniProt Q5S007, G2019S); experiment: LRRK2 G2019S enzyme inhibition, ADP-Glo kinase assay; parameters: purchased SignalChem L10-12GG; conditions: ATP 25 μM
Sequence of LRRK2 (G2019S) (Q5S007 970-2527 G2019S limits assumed): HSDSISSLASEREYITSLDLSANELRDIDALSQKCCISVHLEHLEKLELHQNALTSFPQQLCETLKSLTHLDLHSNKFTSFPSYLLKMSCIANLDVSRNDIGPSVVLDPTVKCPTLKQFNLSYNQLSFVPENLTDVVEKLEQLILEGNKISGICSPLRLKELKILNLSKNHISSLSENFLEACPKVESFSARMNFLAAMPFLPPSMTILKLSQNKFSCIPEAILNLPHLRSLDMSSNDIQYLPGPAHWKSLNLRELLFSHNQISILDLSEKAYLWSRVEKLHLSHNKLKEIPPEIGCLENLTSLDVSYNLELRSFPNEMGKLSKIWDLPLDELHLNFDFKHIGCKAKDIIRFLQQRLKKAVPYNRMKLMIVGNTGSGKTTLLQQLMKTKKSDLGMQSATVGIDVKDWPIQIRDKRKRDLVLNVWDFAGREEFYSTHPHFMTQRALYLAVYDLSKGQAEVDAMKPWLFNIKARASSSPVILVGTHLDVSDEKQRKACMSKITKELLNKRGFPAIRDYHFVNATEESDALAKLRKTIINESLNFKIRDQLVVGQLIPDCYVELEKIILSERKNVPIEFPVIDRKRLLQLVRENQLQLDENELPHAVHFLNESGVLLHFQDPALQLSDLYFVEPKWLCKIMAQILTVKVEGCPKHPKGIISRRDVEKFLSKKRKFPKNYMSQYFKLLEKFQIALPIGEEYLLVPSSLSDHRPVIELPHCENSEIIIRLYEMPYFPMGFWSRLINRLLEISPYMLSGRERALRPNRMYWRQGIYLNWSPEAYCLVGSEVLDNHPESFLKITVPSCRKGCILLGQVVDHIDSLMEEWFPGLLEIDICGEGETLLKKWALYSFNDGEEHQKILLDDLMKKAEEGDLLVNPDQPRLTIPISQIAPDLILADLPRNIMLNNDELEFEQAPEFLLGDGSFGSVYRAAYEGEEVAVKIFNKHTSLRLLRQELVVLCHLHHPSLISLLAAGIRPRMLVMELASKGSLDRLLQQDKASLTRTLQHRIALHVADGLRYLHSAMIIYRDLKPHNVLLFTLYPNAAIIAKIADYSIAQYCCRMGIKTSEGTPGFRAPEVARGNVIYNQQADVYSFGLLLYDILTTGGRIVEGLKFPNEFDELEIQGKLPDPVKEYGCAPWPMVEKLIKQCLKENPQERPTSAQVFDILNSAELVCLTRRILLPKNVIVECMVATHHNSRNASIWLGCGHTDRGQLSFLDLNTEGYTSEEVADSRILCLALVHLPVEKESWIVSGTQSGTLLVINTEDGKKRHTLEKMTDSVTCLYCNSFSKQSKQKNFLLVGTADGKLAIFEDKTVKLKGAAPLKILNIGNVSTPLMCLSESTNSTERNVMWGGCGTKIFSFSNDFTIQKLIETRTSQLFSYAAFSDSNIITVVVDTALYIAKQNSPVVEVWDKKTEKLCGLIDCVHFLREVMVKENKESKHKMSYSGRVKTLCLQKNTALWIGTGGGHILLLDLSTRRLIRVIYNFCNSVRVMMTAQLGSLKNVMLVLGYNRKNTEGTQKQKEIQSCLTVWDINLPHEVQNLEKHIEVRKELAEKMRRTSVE
Experimental: To evaluate an inhibitory activity of the compound according to the present invention against LRRK2, LRRK2 (G2019S), DYRK1, CLK1, and TTK kinases, experiments were performed as follows.
Each of the Example compounds was reacted with a purified human LRRK2 G2019S (L10-12GG, SignalChem) enzyme to evaluate an ability to inhibit an enzyme using a method as described below. A composition of 40 mM Tris-HCl (pH 7.4), 20 mM MgCl2, 0.5 mg/mL BSA, and 50 μM DTT was used as a reaction buffer, and all reactions of test substances were performed in the reaction buffer. Each of the compounds was diluted […] from a 10 mM DMSO stock using a serial dilution method, and enzyme activities were measured at final compound concentrations of 50, 10, 2, 0.4, 0.08, 0.016, 0.0032, 0.00064, 0.000128, 0.0000256, 0.00000512, and 0.000001024 μM. In the test, purified ATP (25 μM) and an enzyme substrate (0.2 μg) were reacted with a human LRRK2 G2019S (16 ng) enzyme at 25° C. for 2 hours, and the enzyme activities were then determined using an in vitro ADP-Glo™ kinase assay (Promega). An enzyme-activity reaction solution, an ADP-Glo reaction solution, and an enzyme-ability detection solution were reacted at a ratio of 2:2:1 to measure a degree of inhibition of the enzyme activity with luminescence. The degree of inhibition of the enzyme activity according to the treatment concentration of each of the compounds was calculated based on the fluorescence of the enzyme activity of the solvent control which was not treated with the compound. In this case, the concentration of each of the compounds inhibiting 50% of the enzyme activity was determined to be an IC50 (nM) value, and calculated using Prism (Version 5.01; GraphPad) software.

human GST-DYRK1A = target: T2, human GST-DYRK1A (Homo sapiens, UniProt Q13627); experiment: GST-DYRK1A enzyme inhibition, ADP-Glo kinase assay; conditions: ATP 10 μM, GST-DYRK1A full length, read-out: DYRK1 IC50
T2 construct: purified human GST-DYRK1A (full length, Thermo Scientifics) enzyme; purchased Thermo Scientifics
Outline: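 Full-length human GST-DYRK1A (10 ng) with 10 μM ATP and specific substrate in 40 mM Tris-HCl pH 7.4, 20 mM MgCl2, 0.5 mg/mL BSA, 50 μM DTT, 1 h at 25 °C. ADP formation read by ADP-Glo luminescence relative to solvent control; IC50 from three data sets.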

| Compound | IC50 (human GST-CLK1) [nM] | IC50 (LRRK2 (G2019S)) [nM] | IC50 (human GST-DYRK1A) [nM] |
| --- | --- | --- | --- |
| COc1cc(S(C)(=O)=O)ccc1Nc1nc(NC2CCOCC2)c2cc[nH]c2n1 [Example 30, N^2-(2-methoxy-4-(methylsulfonyl)phenyl)-N^4-(tetrahydro-2H-pyran-4-yl)-7H-pyrrolo[2,3-d]pyrimidine-2,4-diamine 2,2,2-trifluoroacetate] | 301 to 1000 | < 100 | 301 to 1000 |
| COc1cc(S(=O)(=O)N2CCOCC2)ccc1Nc1nc(NCC2CC2)c2cc[nH]c2n1 [Example 31, N^4-(cyclopropylmethyl)-N^2-(2-methoxy-4-(morpholinosulfonyl)phenyl)-7H-pyrrolo[2,3-d]pyrimidine-2,4-diamine 2,2,2-trifluoroacetate] | 301 to 1000 | < 100 | 301 to 1000 |
| COc1cc(S(=O)(=O)N2CCC(N3CCOCC3)CC2)ccc1Nc1nc(NCC2CC2)c2cc[nH]c2n1 [Example 32, N^4-(cyclopropylmethyl)-N^2-(2-methoxy-4-((4-morpholinopiperidin-1-yl)sulfonyl)phenyl)-7H-pyrrolo[2,3-d]pyrimidine-2,4-diamine] | 301 to 1000 | < 100 | 301 to 1000 |
| COc1cc(S(C)(=O)=O)ccc1Nc1nc(NCC2CC2)c2cc[nH]c2n1 [Example 33, N^4-(cyclopropylmethyl)-N^2-(2-methoxy-4-(methylsulfonyl)phenyl)-7H-pyrrolo[2,3-d]pyrimidine-2,4-diamine] | 301 to 1000 | < 100 | 301 to 1000 |
| COCC(C)(C)Nc1nc(Nc2ccc(S(=O)(=O)N3CCOCC3)cc2OC)nc2[nH]ccc12 [Example 34, N^4-(1-methoxy-2-methylpropan-2-yl)-N^2-(2-methoxy-4-(morpholinosulfonyl)phenyl)-7H-pyrrolo[2,3-d]pyrimidine-2,4-diamine] | 301 to 1000 | < 100 | 301 to 1000 |
| COCC(C)(C)Nc1nc(Nc2ccc(S(=O)(=O)N3CCC(N4CCOCC4)CC3)cc2OC)nc2[nH]ccc12 [Example 35, N^4-(1-methoxy-2-methylpropan-2-yl)-N^2-(2-methoxy-4-((morpholinopiperidin-1-yl)sulfonyl)phenyl)-7H-pyrrolo[2,3-d]pyrimidine-2,4-diamine] | 101 to 300 | < 100 | 301 to 1000 |
| COCC(C)(C)Nc1nc(Nc2ccc(S(C)(=O)=O)cc2OC)nc2[nH]ccc12 [Example 36, N^4-(1-methoxy-2-methylpropan-2-yl)-N^2-(2-methoxy-4-(methylsulfonyl)phenyl)-7H-pyrrolo[2,3-d]pyrimidine-2,4-diamine] | 301 to 1000 | < 100 | 301 to 1000 |
| COc1cc(S(=O)(=O)N2CCOCC2)ccc1Nc1nc(NCC2CCC2)c2cc[nH]c2n1 [Example 37, N^4-(cyclobutylmethyl)-N^2-(2-methoxy-4-(morpholinosulfonyl)phenyl)-7H-pyrrolo[2,3-d]pyrimidine-2,4-diamine] | 301 to 1000 | < 100 | 301 to 1000 |
| COc1cc(S(=O)(=O)N2CCC(N3CCOCC3)CC2)ccc1Nc1nc(NCC2CCC2)c2cc[nH]c2n1 [Example 38, N^4-(cyclobutylmethyl)-N^2-(2-methoxy-4-((4-morpholinopiperidin-1-yl)sulfonyl)phenyl)-7H-pyrrolo[2,3-d]pyrimidine-2,4-diamine 2,2,2-trifluoroacetate] | 301 to 1000 | < 100 | 301 to 1000 |
| COc1cc(S(C)(=O)=O)ccc1Nc1nc(NCC2CCC2)c2cc[nH]c2n1 [Example 39, N^4-(cyclobutylmethyl)-N^2-(2-methoxy-4-(methylsulfonyl)phenyl)-7H-pyrrolo[2,3-d]pyrimidine-2,4-diamine 2,2,2-trifluoroacetate] | 301 to 1000 | < 100 | 301 to 1000 |
| COc1cc(S(=O)(=O)N2CCOCC2)ccc1Nc1nc(NCC2CCCC2)c2cc[nH]c2n1 [Example 40, N^4-(cyclopentylmethyl)-N^2-(2-methoxy-4-(morpholinosulfonyl)phenyl)-7H-pyrrolo[2,3-d]pyrimidine-2,4-diamine 2,2,2-trifluoroacetate] | 301 to 1000 | 301 to 1000 | 301 to 1000 |
| COc1cc(S(=O)(=O)N2CCC(N3CCOCC3)CC2)ccc1Nc1nc(NCC2CCCC2)c2cc[nH]c2n1 [Example 41, N^4-(cyclopentylmethyl)-N^2-(2-methoxy-4-((4-morpholinopiperidin-1-yl)sulfonyl)phenyl)-7H-pyrrolo[2,3-d]pyrimidine-2,4-diamine 2,2,2-trifluoroacetate] | 301 to 1000 | < 100 | 301 to 1000 |

Next, values leading:

| IC50 (human GST-CLK1) [nM] | IC50 (LRRK2 (G2019S)) [nM] | IC50 (human GST-DYRK1A) [nM] | Compound |
| --- | --- | --- | --- |
| 301 to 1000 | 101 to 300 | 301 to 1000 | COc1cc(S(C)(=O)=O)ccc1Nc1nc(NCC2CCCC2)c2cc[nH]c2n1 [Example 42, N^4-(cyclopentylmethyl)-N^2-(2-methoxy-4-(methylsulfonyl)phenyl)-7H-pyrrolo[2,3-d]pyrimidine-2,4-diamine 2,2,2-trifluoroaceate] |
| 301 to 1000 | < 100 | 301 to 1000 | CC(C)CNc1nc(Nc2ccc(C(=O)N3CCOCC3)c3c2OCCO3)nc2[nH]ccc12 [Example 44, (8-((4-(isobutylamino)-7H-pyrrolo[2,3-d]pyrimidin-2-yl)amino)-2,3-dihydrobenzo[b][1,4]dioxin-5-yl)(morpholino)methanone] |
| 301 to 1000 | < 100 | 301 to 1000 | CC(C)Nc1nc(Nc2ccc(C(=O)N3CCOCC3)c3c2OCCO3)nc2[nH]ccc12 [Example 45, (8-((4-(isopropylamino)-7H-pyrrolo[2,3-d]pyrimidin-2-yl)amino)-2,3-dihydrobenzo[b][1,4]dioxin-5-yl)(morpholino)methanone 2,2,2-trifluoroacetate] |
| 301 to 1000 | < 100 | 301 to 1000 | COCCNc1nc(Nc2ccc(C(=O)N3CCOCC3)c3c2OCCO3)nc2[nH]ccc12 [Example 46, (8-((4-((2-methoxyethyl)amino)-7H-pyrrolo[2,3-d]pyrimidin-2-yl)amino)-2,3-dihydrobenzo[b][1,4]dioxin-5-yl)(morpholino)methanone 2,2,2-trifluoroacetate] |
| 301 to 1000 | < 100 | 301 to 1000 | O=C(c1ccc(Nc2nc(NC3CCC3)c3cc[nH]c3n2)c2c1OCCO2)N1CCOCC1 [Example 47, (8-((4-(cyclobutylamino)-7H-pyrrolo[2,3-d]pyrimidin-2-yl)amino)-2,3-dihydrobenzo[b][1,4]dioxin-5-yl)(morpholino)methanone] |
| 301 to 1000 | < 100 | 301 to 1000 | O=C(c1ccc(Nc2nc(NC3CCCC3)c3cc[nH]c3n2)c2c1OCCO2)N1CCOCC1 [Example 48, (8-((4-(cyclopentylamino)-7H-pyrrolo[2,3-d]pyrimidin-2-yl)amino)-2,3-dihydrobenzo[b][1,4]dioxin-5-yl)(morpholino)methanone] |
| 301 to 1000 | < 100 | 301 to 1000 | O=C(c1ccc(Nc2nc(NC3CCCCC3)c3cc[nH]c3n2)c2c1OCCO2)N1CCOCC1 [Example 49, (8-((4-(cyclohexylamino)-7H-pyrrolo[2,3-d]pyrimidin-2-yl)amino)-2,3-dihydrobenzo[b][1,4]dioxin-5-yl)(morpholino)methanone 2,2,2-trifluoroacetate] |
| 301 to 1000 | < 100 | 301 to 1000 | O=C(c1ccc(Nc2nc(NC3CCOCC3)c3cc[nH]c3n2)c2c1OCCO2)N1CCOCC1 [Example 52, morpholino(8-((4-((tetrahydro-2H-pyran-4-yl)amino)-7H-pyrrolo[2,3-d]pyrimidin-2-yl)amino)-2,3-dihydrobenzo[b][1,4]dioxin-5-yl)methanone 2,2,2-trifluoroacetate] |
| 301 to 1000 | < 100 | 301 to 1000 | O=C(c1ccc(Nc2nc(NCC3CC3)c3cc[nH]c3n2)c2c1OCCO2)N1CCOCC1 [Example 53, (8-((4-((cyclopropylmethyl)amino)-7H-pyrrolo[2,3-d]pyrimidin-2-yl)amino)-2,3-dihydrobenzo[b][1,4]dioxin-5-yl)(morpholino)methanone] |
